Reference: patent publication US10596118B2, “Solid dispersions” (Shionogi Inc., priority 2015, dated 2020)
≈ marks a conversion by molar mass, not a printed value.

Assays:
[1] = Solubility by shake flask method with HPLC analysis; settings: thermodynamic from solid
Protocol: Solubility measurements of the solid dispersions and physical mixtures were performed using a shake flask method. Individual test samples comprising about 5 mg ospemifene, 30 mg of each physical mixture, or 30 mg of each solid dispersion, were mixed with 20 mL of an aqueous media (either water alone, 0.1N HCl, or a buffered aqueous solution comprising 50 mM phosphate, pH 6.8). The sample was agitated manually for 3 hours. Following mixing, a 1.5 mL sample was withdrawn to a micro-centrifuge tube and centrifuged at 12,000 rpm for 10 min. About 1 mL of supernatant was then transferred to a HPLC vial for HPLC analysis.
The solubilities of ospemifene solid dispersions, the control physical mixtures, and ospemifene alone were determined by HPLC in water, 0.1 N HCl, or 50 mM pH 6.8 buffer using a shake flask method, as described above.

physchem [2] = settings: water or buffered solutions, aqueous buffer
[3] = poor water solubility and high permeability
[4] = oral administration of a 60 mg dose; cited from earlier work
[5] = Micro dissolution in simulated GI fluids (FaSSIF, FeSSIF) and pH 6.8 phosphate buffer; settings: for solubility in FeSSIF relative to FaSSIF: FeSSIF versus FaSSIF
From the text: To investigate the in-vivo absorption process of ospemifene in the GI tract, a dissolution method using simulated GI fluids (FaSSIF and FeSSIF) was developed to simulate drug dissolution in-vivo. The abbreviation “FaSSIF” stands for fasted state simulated intestinal fluid, while the abbreviation “FeSSIF” stands for fed state simulated intestinal fluid. […] FaSSIF and FeSSIF media are commercially available from Biorelevant and were used according to the manufacturer's instructions.
Micro dissolution was conducted in a centrifuge vial containing 1.5 mL of dissolution medium (either FaSSIF or FeSSIF) at room temperature. […] The vials were centrifuged at 30 min, 1, 2 and 3 hour(s) at 14,000 rpm for one minute and 50 μL of supernatant was transferred to an HPLC vial and diluted with 50 μL acetonitrile and assayed by HPLC.
The detector was set at 235 nm. Two mobile phases were used, mobile phase A and mobile phase B. Mobile phase A was 800/200/40 (v/v/v) deionized water/acetonitrile/tetrahydrofuran and mobile phase B was 100% acetonitrile.
For drug content analysis, the same HPLC column and mobile phases were used but the flow rate of the mobile phases was 1 ml/min, the injection volume was 7 μL and the gradient program was as follows: […]

physchem [6] = settings: organic solvent or mixture, thermodynamic from solid
From the text: In developing methods of evaluating the solubility of the various compositions produced in these studies, a common solvent was selected that was capable of dissolving both ospemifene and each of the hydrophilic carriers being evaluated. […] Thus, an incremental solvent addition method was used to estimate the solubility in methanol and ethanol co-solvent mixture.

[7] = Sun et al., 2012; cited from earlier work

SMILES	solubility at 3 h ([1]; pH 6.8, aqueous buffer) [µg/mL]	solubility at 3 h ([1]; simulated gastric fluid) [µg/mL]	solubility at 3 h ([1]; water) [µg/mL]	solubility (physchem [2]) [µg/mL]	BCS class [3]	share of total dose eliminated via the fecal route [4] [%]	time the amount of drug in solution remains relatively stable ([5]; FeSSIF and FaSSIF) [h]	solubility in FeSSIF relative to FaSSIF ([5]; listed as micronized ospemifene)	solubility in FeSSIF relative to FaSSIF ([5]; listed as ospemifene alone)	solubility at 2 h ([5]; fassif, thermodynamic from solid) [µg/mL]	solubility ([5]; fessif, thermodynamic from solid) [µg/mL]	solubility ([5]; pH 6.8, aqueous buffer) [µg/mL]	solubility (physchem [6]; solubility in ethanol, ethanol) [µg/mL]	solubility (physchem [6]; solubility in methanol, methanol) [µg/mL]	maximum solubility enhancement observed with HPMCAS or PVP [7] [fold]
OCCOc1ccc(/C(=C(/CCCl)c2ccccc2)c2ccccc2)cc1 [Ospemifene (OSP), ospemifene]	< 0.03	< 0.03	0.04 (≈ 0.106 µM)	< 0.3	BCS class II	75	2 to 3	about 4 fold	2-3 fold	10 (≈ 26.4 µM)	45 (≈ 119 µM)	< 10	~57000 (≈ 150000 µM)	~67000 (≈ 177000 µM)	–
COc1ccc2c(c1)c(CC(=O)O)c(C)n2C(=O)c1ccc(Cl)cc1 [indomethacin]	–	–	–	–	–	–	–	–	–	–	–	–	–	–	9
